Experimental data from BindingDB's records for doi:10.1021/acs.jmedchem.0c00546 (University of Tennessee, 2020).

Target: T1, Dihydrofolate reductase (Homo sapiens, UniProt P00374)
T1 sequence (P00374 whole entry): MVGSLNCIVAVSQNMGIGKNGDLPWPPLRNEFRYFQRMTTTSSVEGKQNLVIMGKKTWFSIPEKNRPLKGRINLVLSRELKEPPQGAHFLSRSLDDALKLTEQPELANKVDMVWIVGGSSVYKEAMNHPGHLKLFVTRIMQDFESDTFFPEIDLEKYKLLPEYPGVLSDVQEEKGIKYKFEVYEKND
Assay: Inhibition of human DHFR in presence of DHF and NADPH by UV-vis spectrometry by Lineweaver-Burk plot analysis

Ki [µM]	Compound
880	N[C@H](Cc1c[nH]c2ccccc12)C(=O)O [(2R)-2-amino-3-(1H-indol-3-yl)propanoic acid]
180	Nc1ccnc(N)n1 [Diaminopyrimidine]
